# Data from the supplement of paper PMC10307832.
# Experiments:
# Assay in all cases: relative viability (nuclei count vs DMSO), 5 days (fraction); higher = more cells survive
# NCI-H1792 = tested on: NCI-H1792
# Method in brief: (§1)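 Relative viability equals treated-well nuclei counts divided by vehicle-well nuclei counts. Counts came from 4× images of lung cancer cell lines grown in 1536-well plates for 5 days after pin-tool dosing on the day after seeding. Dosing used one drug alone or a fixed anchor-drug dose plus five library-drug doses (not always all listed) in √10 steps, and values are medians of duplicate plates.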
# SK-MES-1 = tested on: SK-MES-1
# Method in brief: as §1
# NCI-H727 = tested on: NCI-H727
# Method in brief: as §1
# EMC-BAC-2 = tested on: EMC-BAC-2
# Method in brief: as §1
# NCI-H2228 = tested on: NCI-H2228
# Method in brief: as §1
# PC-3 [JPC-3] = tested on: PC-3 [JPC-3]
# Method in brief: as §1
# NCI-H2009 = tested on: NCI-H2009
# Method in brief: as §1
# LK-2 = tested on: LK-2
# Method in brief: as §1
# NCI-H1944 = tested on: NCI-H1944
# Method in brief: as §1
# NCI-H322M = tested on: NCI-H322M
# Method in brief: as §1
# HARA = tested on: HARA
# Method in brief: as §1
# NCI-H1993 = tested on: NCI-H1993
# Method in brief: as §1
# NCI-H596 = tested on: NCI-H596
# Method in brief: as §1
# HOP-62 = tested on: HOP-62
# Method in brief: as §1
# NCI-H3122 = tested on: NCI-H3122
# Method in brief: as §1
# A-427 = tested on: A-427
# Method in brief: as §1
# ABC-1 = tested on: ABC-1
# Method in brief: as §1
# SW 1573 = tested on: SW 1573
# Method in brief: as §1
# LXF-289 = tested on: LXF-289
# Method in brief: as §1
smiles,measurement,setting,value
COc1nc(C)cnc1NS(=O)(=O)c1cccnc1-c1ccc(-c2nnco2)cc1 [Zibotentan] + C[C@]1(O)C[C@@H](c2nc(-c3ccc4ccc(-c5ccccc5)nc4c3)c3c(N)nccn32)C1 [Linsitinib] (partner 1 µM),relative viability,NCI-H1792; first compound 0.08 µM,0.426
same,relative viability,NCI-H1792; first compound 0.253 µM,0.448
same,relative viability,NCI-H1792; first compound 0.8 µM,0.396
same,relative viability,NCI-H1792; first compound 2.53 µM,0.556
same,relative viability,SK-MES-1; first compound 0.08 µM,1.12
same,relative viability,SK-MES-1; first compound 0.253 µM,1
same,relative viability,SK-MES-1; first compound 0.8 µM,1.05
same,relative viability,SK-MES-1; first compound 2.53 µM,1.14
same,relative viability,NCI-H727; first compound 0.08 µM,0.208
same,relative viability,NCI-H727; first compound 0.253 µM,0.322
same,relative viability,NCI-H727; first compound 0.8 µM,0.248
same,relative viability,NCI-H727; first compound 2.53 µM,0.314
same,relative viability,EMC-BAC-2; first compound 0.08 µM,0.895
same,relative viability,EMC-BAC-2; first compound 0.253 µM,0.785
same,relative viability,EMC-BAC-2; first compound 0.8 µM,0.823
same,relative viability,EMC-BAC-2; first compound 2.53 µM,0.905
same,relative viability,NCI-H2228; first compound 0.08 µM,0.722
same,relative viability,NCI-H2228; first compound 0.253 µM,0.467
same,relative viability,NCI-H2228; first compound 0.8 µM,0.903
same,relative viability,NCI-H2228; first compound 2.53 µM,0.728
same,relative viability,PC-3 [JPC-3]; first compound 0.08 µM,0.931
same,relative viability,PC-3 [JPC-3]; first compound 0.253 µM,0.964
same,relative viability,PC-3 [JPC-3]; first compound 0.8 µM,1.01
same,relative viability,PC-3 [JPC-3]; first compound 2.53 µM,0.98
same,relative viability,NCI-H2009; first compound 0.08 µM,1.14
same,relative viability,NCI-H2009; first compound 0.253 µM,1.05
same,relative viability,NCI-H2009; first compound 0.8 µM,1.2
same,relative viability,NCI-H2009; first compound 2.53 µM,1.22
same,relative viability,LK-2; first compound 0.08 µM,0.709
same,relative viability,LK-2; first compound 0.253 µM,0.535
same,relative viability,LK-2; first compound 2.53 µM,0.701
same,relative viability,NCI-H1944; first compound 0.08 µM,1.19
same,relative viability,NCI-H1944; first compound 0.253 µM,1.12
same,relative viability,NCI-H1944; first compound 0.8 µM,1.1
same,relative viability,NCI-H1944; first compound 2.53 µM,1.15
same,relative viability,NCI-H322M; first compound 0.08 µM,0.912
same,relative viability,NCI-H322M; first compound 0.253 µM,0.898
same,relative viability,NCI-H322M; first compound 0.8 µM,0.933
same,relative viability,NCI-H322M; first compound 2.53 µM,0.843
same,relative viability,HARA; first compound 0.08 µM,1.24
same,relative viability,HARA; first compound 0.253 µM,0.945
same,relative viability,HARA; first compound 0.8 µM,0.955
same,relative viability,HARA; first compound 2.53 µM,0.902
same,relative viability,NCI-H1993; first compound 0.253 µM,0.838
same,relative viability,NCI-H1993; first compound 0.8 µM,0.75
same,relative viability,NCI-H1993; first compound 2.53 µM,0.85
same,relative viability,NCI-H596; first compound 0.08 µM,1.23
same,relative viability,NCI-H596; first compound 0.253 µM,1.08
same,relative viability,NCI-H596; first compound 0.8 µM,1.03
same,relative viability,NCI-H596; first compound 2.53 µM,1.11
same,relative viability,HOP-62; first compound 0.08 µM,0.805
same,relative viability,HOP-62; first compound 0.253 µM,1.06
same,relative viability,HOP-62; first compound 0.8 µM,0.992
same,relative viability,HOP-62; first compound 2.53 µM,1.29
same,relative viability,NCI-H3122; first compound 0.08 µM,0.983
same,relative viability,NCI-H3122; first compound 0.253 µM,0.972
same,relative viability,NCI-H3122; first compound 0.8 µM,1
same,relative viability,NCI-H3122; first compound 2.53 µM,0.963
same,relative viability,A-427; first compound 0.08 µM,1.12
same,relative viability,A-427; first compound 0.253 µM,1.17
same,relative viability,A-427; first compound 0.8 µM,1.14
same,relative viability,A-427; first compound 2.53 µM,1.12
same,relative viability,ABC-1; first compound 0.08 µM,0.775
same,relative viability,ABC-1; first compound 0.253 µM,0.803
same,relative viability,ABC-1; first compound 0.8 µM,1.01
same,relative viability,ABC-1; first compound 2.53 µM,0.822
same,relative viability,SW 1573; first compound 0.08 µM,1.04
same,relative viability,SW 1573; first compound 0.253 µM,0.783
same,relative viability,SW 1573; first compound 0.8 µM,0.863
same,relative viability,SW 1573; first compound 2.53 µM,0.878
same,relative viability,LXF-289; first compound 0.08 µM,1.01
same,relative viability,LXF-289; first compound 0.253 µM,0.998
same,relative viability,LXF-289; first compound 0.8 µM,0.969
same,relative viability,LXF-289; first compound 2.53 µM,1.01
